Converted amounts (≈) assume the structure as drawn. Like-named read-outs stand apart in the source and are kept apart here.
Experiments:
[1] = system: human platelet-rich plasma (ADP-induced platelet aggregation); experiment: In vitro inhibition of ADP-induced human platelet aggregation (Born aggregometer method); assay type: cell-based
Experimental: (§1) The aggregometer method of Born, C. […] The human volunteer donor's arm is cleansed with 70% ethyl alcohol. A sterile 20 ml syringe and needle are used to withdraw 20 ml of blood.
(§2) All glassware used for preparation of PRP is silicon treated. […] The various compounds tested were dissolved in dimethylsulfoxide (DMSO) so that 5 mcl added to the platelet rich plasma would yield the desired test concentration. Vehicle control trials were done and compared with aggregation induced in platelet rich plasma containing various concentrations of the test compounds. Dose response curves were obtained and Inhibitor Concentration IC50) values calculated.

[2] = system: human platelet-rich plasma (collagen-induced platelet aggregation); experiment: In vitro inhibition of collagen-induced human platelet aggregation (Born aggregometer method); assay type: cell-based; details: human PRP, 0.05 mL of a collagen suspension
Experimental: as §1, §2

[3] = system: biolaser induced thrombosis (thrombus formation); experiment: In vivo inhibition of biolaser induced thrombosis in rabbit ear chamber; set-up: species or system English lop-ear rabbits
Source text: The laser induced thrombosis method is a modification of the technique developed by Sanders, A. G., et al. in Brit. J Exp. Pathol., 1954, 35, 331 and Grant, L., et al. in Proc. Soc. Exp. Biol. Med., 1965, 119, 1123. A detailed description of this method has been described by Fleming, J. S., et al., in Platelets and Thrombosis, A. Scriabine and S. Sherry, eds., Baltimore, Univ. Park Press, pp. 247-262, 1974 and is hereby incorporated by reference.
Briefly, Lucite ear chambers were chronically implanted in adult, English lop-ear rabbits. The animals were conditioned to lie quietly in the supine position. Localized microvascular injury was induced by focusing a single ruby laser beam through a microscope into the lumen of a vessel 10-60 μM in diameter. This evoked the formation of a small thrombus consisting of platelets accumulated around a core of one or two damaged red cells. Thrombus area was determined as a product of two perpendicular measurements made by using a micrometer eye piece. The mean thrombus area (μM^2) obtained for 10 trials in each rabbit served as a control value. The test compound was administered orally and post-dose trials were performed at selected times. Pharmacological activity was evaluated by comparing pre- and post-dose mean thrombus areas.

[4] = human PRP, ADP 0.5 mcg/mL, read-out: IC50 - Human PRP vs:ADP

OCCN(CCO)c1nc(N2CCCCC2)c2nc(N(CCO)CCO)nc(N3CCCCC3)c2n1 [dipyridamole, reference compound]
IC50 ([1]; Homo sapiens, read-out: IC50 vs. ADP): > 512 µg/mL

O=C(O)CCCC=CCCCn1nc(-c2ccccc2)c(-c2ccccc2)c1-c1ccccc1 [Example 10, (Z) and (E)-9-(3,4,5-Triphenyl-lH-pyrazol-1-yl)-5-nonenoic acid hydrate]
IC50 [1, 4]: 0.35 µg/mL | IC50 [2]: 0.12 µg/mL

O=C(O)CSCCCCCn1nc(-c2ccccc2)c(-c2ccccc2)c1-c1ccccc1 [Example 27, [[5-(3,4,5-Triphenyl-lH-pyrazol-1-yl)pentyl]thio]acetic acid]
IC50 [1, 4]: 1.9 µg/mL (≈ 4.16 µM) | IC50 [2]: 0.16 µg/mL (≈ 0.35 µM)

O=C(O)CSCCCCCCn1nc(-c2ccccc2)c(-c2ccccc2)c1-c1ccccc1 [Example 21, [[6-(3,4,5-Triphenyl-lH-pyrazol-1-yl)hexyl]thio]acetic acid]
IC50 [1, 4]: 0.41 µg/mL (≈ 0.871 µM) | IC50 [2]: 0.15 µg/mL (≈ 0.319 µM)

O=C(O)CCCCCCCCn1cc(-c2ccccc2)c(-c2ccccc2)n1 [Example 17, 3,4-Diphenyl-lH-pyrazol-1-nonanoic acid hydrate]
IC50 [1, 4]: 1.5 µg/mL

O=C(O)COCCCCCCn1nc(-c2ccccc2)c(-c2ccccc2)c1-c1ccccc1 [Example 4, [[6-(3,4,5-Triphenyl-lH-pyrazol-1-yl)hexyl]oxy]acetic acid]
IC50 [1, 4]: 0.2 µg/mL (≈ 0.44 µM) | IC50 [2]: 0.096 µg/mL (≈ 0.211 µM)

O=C(O)CCCCCCCCn1ncc(-c2ccccc2)c1-c1ccccc1 [Example 18, 4,5-Diphenyl-lH-pyrazol-1-nonanoic acid]
IC50 [1, 4]: 2.5 µg/mL (≈ 6.64 µM) | IC50 [2]: 0.45 µg/mL (≈ 1.2 µM)

O=C(O)CCCCCCCCCn1nc(-c2ccccc2)c(-c2ccccc2)c1-c1ccccc1 [Example 36, 3,4,5-triphenyl-lH-pyrazole-1-decanoic acid hydrate]
IC50 [1, 4]: 3.5 µg/mL

O=C(O)CCCCCCCn1nc(-c2ccccc2)c(-c2ccccc2)c1-c1ccccc1 [Example 8, 3,4,5-Triphenyl-lH-pyrazol-1-octanoic acid hydrate]
IC50 [1, 4]: 1.9 µg/mL

c1ccc(-c2nn(CCCCCCCCc3nn[nH]n3)c(-c3ccccc3)c2-c2ccccc2)cc1 [Example 40, 5-[8-(3,4,5-Triphenyl-lH-pyrazol-1-yl)octyl]-2 H-tetrazole]
IC50 [1, 4]: 0.5 µg/mL (≈ 1.05 µM) | IC50 [2]: 0.052 µg/mL (≈ 0.109 µM)

COC(=O)CCCCCCCCn1nc(-c2ccccc2)c(-c2ccccc2)c1-c1ccccc1 [Example 14, Methyl 3,4,5-triphenyl-lH-pyrazol-1-nonanoate]
IC50 [1, 4]: 2 µg/mL (≈ 4.29 µM) | IC50 [2]: 0.27 µg/mL (≈ 0.579 µM)

O=C(O)CCCCCCCCn1nc(-c2ccccc2)c(-c2ccccc2)c1-c1ccccc1 [Example 15, 3,4,5-Triphenyl-lH-pyrazol-1-nonanoic acid hydrate]
IC50 [1, 4]: 0.16 µg/mL | IC50 [2]: 0.068 µg/mL | inhibition of thrombus formation ([3]; oral 1 mg/kg): approximately 30% | inhibition of thrombus formation ([3]; oral 10 mg/kg): over 60% | inhibition of thrombus formation ([3]; oral 30 mg/kg): over 60%

O=C(O)CCCCCCCn1ncc(-c2ccccc2)c1-c1ccccc1 [Example 44, 4,5-Diphenyl-lH-pyrazole-1-octanoic acid]
IC50 [1, 4]: 0.6 µg/mL (≈ 1.66 µM)

O=C(O)C[S+]([O-])CCCCCCn1nc(-c2ccccc2)c(-c2ccccc2)c1-c1ccccc1 (stereo not shown) [Example 25, [[6-(3,4,5-Triphenyl-lH-pyrazol-1-yl)hexyl]sulfinyl]acetic acid hydrate]
IC50 [1, 4]: 3.2 µg/mL

From patent publication US4994482A, “Arylpyrazol derivatives as anti-platelet agents, compositions and use” (Bristol-Myers Squibb Company, priority 1990, dated 1991)
